Data reported in ChEMBL document CHEMBL1201862, “PubChem BioAssay data set” (2004).
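Five concentrations, 48 hours, 96-well plates. GI50: concentration for 50% inhibition of growth.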 Active and inactive are the calls of the source. Cut-off read from the data, not from the text of the source: active = GI50 up to about 1.1 µM and inactive = higher.

Key:
Test in all cases: NCI tumour cell line growth inhibition, 48 h
NCI-H226 = tested on: NCI-H226
SR = tested on: SR
HCT-15 = tested on: HCT-15
EKVX = tested on: EKVX
DU-145 = tested on: DU-145
SNB-19 = tested on: SNB-19
SK-MEL-2 = tested on: SK-MEL-2
MCF7 = tested on: MCF7
NCI/ADR-RES = tested on: NCI/ADR-RES
MDA-MB-231 = tested on: MDA-MB-231
SF-268 = tested on: SF-268
ACHN = tested on: ACHN
CAKI-1 = tested on: CAKI-1
Malme-3M = tested on: Malme-3M
786-0 = tested on: 786-0
OVCAR-4 = tested on: OVCAR-4
SK-OV-3 = tested on: SK-OV-3
OVCAR-5 = tested on: OVCAR-5
SW-620 = tested on: SW-620
HCT-116 = tested on: HCT-116
PC-3 = tested on: PC-3
Hs-578T = tested on: Hs-578T
KM12 = tested on: KM12
SNB-75 = tested on: SNB-75
SF-539 = tested on: SF-539
U-251 = tested on: U-251
OVCAR-3 = tested on: OVCAR-3
OVCAR-8 = tested on: OVCAR-8
SK-MEL-5 = tested on: SK-MEL-5
RXF 393 = tested on: RXF 393
M14 = tested on: M14
A549 = tested on: A549
MOLT-4 = tested on: MOLT-4
SN12C = tested on: SN12C
LOX IMVI = tested on: LOX IMVI
NCI-H460 = tested on: NCI-H460
HCC 2998 = tested on: HCC 2998
SK-MEL-28 = tested on: SK-MEL-28
HT-29 = tested on: HT-29
HOP-62 = tested on: HOP-62
MDA-MB-435 = tested on: MDA-MB-435
K562 = tested on: K562
T47D = tested on: T47D
COLO 205 = tested on: COLO 205
SF-295 = tested on: SF-295
MDA-N = tested on: MDA-N
A498 = tested on: A498
IGROV-1 = tested on: IGROV-1
NCI-H522 = tested on: NCI-H522
UO-31 = tested on: UO-31
UACC-257 = tested on: UACC-257
CCRF-CEM = tested on: CCRF-CEM
RPMI-8226 = tested on: RPMI-8226
HL-60 = tested on: HL-60
UACC-62 = tested on: UACC-62

How did the GI50 (NCI-H226) turn out when CSc1cc(Cl)c(C)cc1S(=O)(=O)NC(=O)NNc1ccc(Cl)cc1 was run?
The GI50 was 56 µM (inactive).

What about the GI50 (SR) of the same compound?
Its GI50 is 70 µM (inactive).

And the GI50 (HCT-15)?
Its GI50 is > 100 µM.

And the GI50 (EKVX)?
Its GI50 is > 100 µM (inactive).

And the GI50 (DU-145)?
Its GI50 is > 100 µM (inactive).

What about the GI50 (SNB-19) of the same compound?
Its GI50 is > 100 µM (inactive).

What about the GI50 (SK-MEL-2) of the same compound?
The GI50 was > 100 µM (inactive).

What about the GI50 (MCF7) of the same compound?
The GI50 was > 100 µM (inactive).

What about the GI50 (NCI/ADR-RES) of the same compound?
Its GI50 is > 100 µM (inactive).

What about the GI50 (MDA-MB-231) of the same compound?
The GI50 was > 100 µM (inactive).

What about the GI50 (SF-268) of the same compound?
The GI50 was > 100 µM (inactive).

What about the GI50 (ACHN) of the same compound?
Its GI50 is 47.3 µM (inactive).

What about the GI50 (CAKI-1) of the same compound?
The GI50 was 94.6 µM (inactive).

And the GI50 (Malme-3M)?
Its GI50 is > 100 µM (inactive).

And the GI50 (786-0)?
Its GI50 is > 100 µM (inactive).

What about the GI50 (OVCAR-4) of the same compound?
The GI50 was > 100 µM (inactive).

What about the GI50 (SK-OV-3) of the same compound?
Its GI50 is > 100 µM (inactive).

What about the GI50 (OVCAR-5) of the same compound?
Its GI50 is > 100 µM (inactive).

What about the GI50 (SW-620) of the same compound?
Its GI50 is > 100 µM (inactive).

And the GI50 (HCT-116)?
The GI50 was > 100 µM (inactive).

What about the GI50 (PC-3) of the same compound?
The GI50 was 80.5 µM (inactive).

And the GI50 (Hs-578T)?
Its GI50 is 34.1 µM (inactive).

And the GI50 (KM12)?
The GI50 was > 100 µM (inactive).

And the GI50 (SNB-75)?
Its GI50 is > 100 µM (inactive).

What about the GI50 (SF-539) of the same compound?
Its GI50 is 40.1 µM (inactive).

And the GI50 (U-251)?
The GI50 was > 100 µM (inactive).

What about the GI50 (OVCAR-3) of the same compound?
The GI50 was > 100 µM (inactive).

What about the GI50 (OVCAR-8) of the same compound?
Its GI50 is > 100 µM (inactive).

And the GI50 (SK-MEL-5)?
The GI50 was 69.5 µM (inactive).

And the GI50 (RXF 393)?
The GI50 was 99.1 µM (inactive).

What about the GI50 (M14) of the same compound?
Its GI50 is > 100 µM (inactive).

And the GI50 (A549)?
Its GI50 is > 100 µM (inactive).

What about the GI50 (MOLT-4) of the same compound?
The GI50 was 46.6 µM (inactive).

And the GI50 (SN12C)?
The GI50 was > 100 µM (inactive).

And the GI50 (LOX IMVI)?
Its GI50 is > 100 µM (inactive).

What about the GI50 (NCI-H460) of the same compound?
The GI50 was > 100 µM (inactive).

What about the GI50 (HCC 2998) of the same compound?
Its GI50 is 36.2 µM (inactive).

What about the GI50 (SK-MEL-28) of the same compound?
Its GI50 is > 100 µM (inactive).

What about the GI50 (HT-29) of the same compound?
The GI50 was > 100 µM (inactive).

What about the GI50 (HOP-62) of the same compound?
The GI50 was > 100 µM (inactive).

And the GI50 (MDA-MB-435)?
Its GI50 is > 100 µM (inactive).

And the GI50 (K562)?
The GI50 was > 100 µM (inactive).

And the GI50 (T47D)?
Its GI50 is > 100 µM (inactive).

And the GI50 (COLO 205)?
The GI50 was > 100 µM (inactive).

And the GI50 (SF-295)?
Its GI50 is > 100 µM (inactive).

What about the GI50 (MDA-N) of the same compound?
The GI50 was > 100 µM (inactive).

And the GI50 (A498)?
Its GI50 is > 100 µM (inactive).

What about the GI50 (IGROV-1) of the same compound?
The GI50 was > 100 µM (inactive).

What about the GI50 (NCI-H522) of the same compound?
The GI50 was 70.3 µM (inactive).

What does the source list for [N-]=[N+]=NC1CC(n2ccc(N)nc2=O)OC1COP(=O)(O)OP(=O)(O)OP(=O)(O)O (stereo unspecified)?
GI50 (UO-31): > 100 µM (inactive); GI50 (NCI-H226): > 100 µM (inactive); GI50 (SR): > 100 µM (inactive); GI50 (HCT-15): > 100 µM; GI50 (EKVX): > 100 µM (inactive); GI50 (DU-145): > 100 µM (inactive); GI50 (SNB-19): > 100 µM (inactive); GI50 (MCF7): > 100 µM (inactive); GI50 (NCI/ADR-RES): > 100 µM (inactive); GI50 (MDA-MB-231): > 100 µM (inactive); GI50 (SF-268): > 100 µM (inactive); GI50 (ACHN): > 100 µM (inactive); GI50 (UACC-257): > 100 µM (inactive); GI50 (CAKI-1): > 100 µM (inactive); GI50 (Malme-3M): > 100 µM (inactive); GI50 (786-0): > 100 µM (inactive); GI50 (OVCAR-4): > 100 µM (inactive); GI50 (SK-OV-3): > 100 µM (inactive); GI50 (OVCAR-5): > 100 µM (inactive); GI50 (SW-620): > 100 µM (inactive); GI50 (HCT-116): > 100 µM (inactive); GI50 (PC-3): > 100 µM (inactive); GI50 (Hs-578T): > 100 µM (inactive); GI50 (SNB-75): > 100 µM (inactive); GI50 (CCRF-CEM): > 100 µM (inactive); GI50 (SF-539): > 100 µM (inactive); GI50 (U-251): > 100 µM (inactive); GI50 (OVCAR-3): > 100 µM (inactive); GI50 (OVCAR-8): > 100 µM (inactive); GI50 (SK-MEL-5): > 100 µM (inactive); GI50 (RXF 393): > 100 µM (inactive); GI50 (M14): > 100 µM (inactive); GI50 (A549): > 100 µM (inactive); GI50 (MOLT-4): > 100 µM (inactive); GI50 (RPMI-8226): > 100 µM (inactive); GI50 (SN12C): > 100 µM (inactive); GI50 (LOX IMVI): > 100 µM (inactive); GI50 (NCI-H460): > 100 µM (inactive); GI50 (HCC 2998): > 100 µM (inactive); GI50 (SK-MEL-28): > 100 µM (inactive); GI50 (HT-29): > 100 µM (inactive); GI50 (HL-60): > 100 µM (inactive); GI50 (HOP-62): > 100 µM (inactive); GI50 (MDA-MB-435): > 100 µM (inactive); GI50 (K562): > 100 µM (inactive); GI50 (T47D): > 100 µM (inactive); GI50 (COLO 205): > 100 µM (inactive); GI50 (SF-295): > 100 µM (inactive); GI50 (UACC-62): > 100 µM (inactive); GI50 (MDA-N): > 100 µM (inactive); GI50 (IGROV-1): > 100 µM (inactive); GI50 (NCI-H522): > 100 µM (inactive)
